Here are results for three compounds from ChEMBL document CHEMBL1141805, “Isolation of 1-Methylherbipoline Salts of Halisulfate-1 and of Suvanine as Serine Protease Inhibitors from a Marine Sponge, Coscinoderma mathewsi” (J Nat Prod, 1998).

Experiment [1] is described as follows: Inhibition of trypsin.
The target of a further experiment is Prothrombin (Homo sapiens, UniProt P00734).

As for `CC1(C)CCC[C@H]2[C@H]1CC[C@@]1(C)[C@@H]2CC/C(=C\OS(=O)(=O)[O-])[C@@H]1CCc1ccoc1.[Na+]`, the IC50 in experiment [1] is 27 µg/mL; at Prothrombin, 19.6 µM.
The like results for `C/C(=C\Cc1cc(O)ccc1O)CCC[C@@H](C)[C@@H](C[C@@H]1CCC[C@H]2C(C)(C)CCC[C@@]12C)OS(=O)(=O)[O-].[Na+]` [HALISULPHATESODIUM] were, in that order, 2 µg/mL and 62.6 µM.
On the same counts, the results for `CC1(C)CCC[C@H]2[C@H]1CC[C@@]1(C)[C@@H]2CC/C(=C\OS(=O)(=O)[O-])[C@@H]1CCc1ccoc1.C[N+](C)=C(N)N` are 23 µg/mL and 47.7 µM.
